Measurements as given in ChEMBL document CHEMBL5042477, “Potent Cyclic Peptide Inhibitors of FXIIa Discovered by mRNA Display with Genetic Code Reprogramming” (J Med Chem, 2021).
Where a SMILES comes first, the peptide text is derived from it. Bridges are numbered along the chain shown (N, C = ends). [ ]: non-standard residue; d: D form. Phe(3-CF3) = N[C@@H](Cc1cccc(C(F)(F)F)c1)C(=O)O; Tyr(3-F) = N[C@@H](Cc1ccc(O)c(F)c1)C(=O)O; Phe(3-OMe) = COc1cccc(C[C@H](N)C(=O)O)c1; Phe(3-Me) = Cc1cccc(C[C@H](N)C(=O)O)c1; Phe(4-Me) = Cc1ccc(C[C@H](N)C(=O)O)cc1; 2Nal = N[C@@H](Cc1ccc2ccccc2c1)C(=O)O; hPhe = N[C@@H](CCc1ccccc1)C(=O)O; 3Pal = N[C@@H](Cc1cccnc1)C(=O)O; 4Pal = N[C@@H](Cc1ccncc1)C(=O)O

Molecular target: T1, Coagulation factor XII (Homo sapiens, UniProt P00748)
T1 sequence (P00748 whole entry): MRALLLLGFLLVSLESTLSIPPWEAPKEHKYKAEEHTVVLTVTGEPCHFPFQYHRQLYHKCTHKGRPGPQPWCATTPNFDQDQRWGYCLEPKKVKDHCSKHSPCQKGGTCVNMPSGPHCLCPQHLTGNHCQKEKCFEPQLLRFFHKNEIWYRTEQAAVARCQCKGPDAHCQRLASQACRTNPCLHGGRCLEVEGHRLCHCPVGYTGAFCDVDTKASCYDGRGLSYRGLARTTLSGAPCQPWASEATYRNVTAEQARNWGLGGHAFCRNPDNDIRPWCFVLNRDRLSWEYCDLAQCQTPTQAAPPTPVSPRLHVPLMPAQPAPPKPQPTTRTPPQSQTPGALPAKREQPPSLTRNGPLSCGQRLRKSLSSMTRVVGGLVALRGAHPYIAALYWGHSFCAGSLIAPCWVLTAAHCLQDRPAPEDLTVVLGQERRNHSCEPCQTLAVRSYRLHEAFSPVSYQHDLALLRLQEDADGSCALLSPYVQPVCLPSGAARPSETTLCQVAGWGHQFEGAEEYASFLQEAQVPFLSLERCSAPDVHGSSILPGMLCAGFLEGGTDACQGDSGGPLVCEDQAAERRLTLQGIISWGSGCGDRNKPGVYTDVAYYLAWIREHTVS
Test: Inhibition of human factor 12a using H-D-Pro-Phe-Arg-p-nitroanilide as chromogenic substrate assessed as liberation of p-nitroaniline measured every 5 mins for 60 min by multimode plate reader analysis

IC50 [nM]	Structure (SMILES)
410000	CC(C)C[C@@H]1NC(=O)[C@H](CCc2ccccc2)NC(=O)CSC[C@@H](C(N)=O)NC(=O)CNC(=O)CNC(=O)[C@H](CCCNC(=N)N)NC(=O)[C@H](CC(=O)O)NC(=O)[C@H](CCCCN)NC(=O)[C@@H]2CCCN2C(=O)[C@H](CCCNC(=N)N)NC(=O)[C@H](Cc2ccccc2)NC(=O)[C@H](CCCNC(=N)N)NC1=O ({CH2CO}-[hPhe]LRFRPKDRGGC-NH2; thioether N-12)
50	CC(C)C[C@@H]1NC(=O)[C@H](Cc2ccc(O)cc2)NC(=O)CSC[C@@H](C(N)=O)NC(=O)CNC(=O)CNC(=O)[C@H](CCCNC(=N)N)NC(=O)[C@H](CC(=O)O)NC(=O)[C@H](CCCCN)NC(=O)[C@@H]2CCCN2C(=O)[C@H](CCCNC(=N)N)NC(=O)[C@H](Cc2ccc3ccccc3c2)NC(=O)[C@H](CCCNC(=N)N)NC1=O ({CH2CO}-YLR[2Nal]RPKDRGGC-NH2; thioether N-12)
150	CC(C)C[C@@H]1NC(=O)[C@H](Cc2ccc(O)c(F)c2)NC(=O)CSC[C@@H](C(N)=O)NC(=O)CNC(=O)CNC(=O)[C@H](CCCNC(=N)N)NC(=O)[C@H](CC(=O)O)NC(=O)[C@H](CCCCN)NC(=O)[C@@H]2CCCN2C(=O)[C@H](CCCNC(=N)N)NC(=O)[C@H](Cc2ccccc2)NC(=O)[C@H](CCCNC(=N)N)NC1=O ({CH2CO}-[Tyr(3-F)]LRFRPKDRGGC-NH2; thioether N-12)
3800	CC(C)C[C@@H]1NC(=O)[C@H]([C@@H](C)O)NC(=O)[C@H](Cc2ccccc2)NC(=O)[C@@H](CCCNC(=N)N)NC(=O)[C@@H](CC(C)C)NC(=O)[C@@H](Cc2ccc(O)cc2)NC(=O)CSC[C@@H](C(N)=O)NC1=O
73	Cc1cccc(C[C@@H]2NC(=O)[C@H](CCCNC(=N)N)NC(=O)[C@H](CC(C)C)NC(=O)[C@H](Cc3ccc(O)cc3)NC(=O)CSC[C@@H](C(N)=O)NC(=O)CNC(=O)CNC(=O)[C@H](CCCNC(=N)N)NC(=O)[C@H](CC(=O)O)NC(=O)[C@H](CCCCN)NC(=O)[C@@H]3CCCN3C(=O)[C@H](CCCNC(=N)N)NC2=O)c1 ({CH2CO}-YLR[Phe(3-Me)]RPKDRGGC-NH2; thioether N-12)
170	CC(C)C[C@@H]1NC(=O)[C@H](Cc2ccc(O)cc2)NC(=O)CSC[C@@H](C(N)=O)NC(=O)CNC(=O)CNC(=O)[C@H](CCCNC(=N)N)NC(=O)[C@H](CC(=O)O)NC(=O)[C@H](CCCCN)NC(=O)[C@@H]2CCCN2C(=O)[C@H](CCCNC(=N)N)NC(=O)[C@H](Cc2cccnc2)NC(=O)[C@H](CCCNC(=N)N)NC1=O ({CH2CO}-YLR[3Pal]RPKDRGGC-NH2; thioether N-12)
56	Cc1ccc(C[C@@H]2NC(=O)[C@H](CCCNC(=N)N)NC(=O)[C@H](CC(C)C)NC(=O)[C@H](Cc3ccc(O)cc3)NC(=O)CSC[C@@H](C(N)=O)NC(=O)CNC(=O)CNC(=O)[C@H](CCCNC(=N)N)NC(=O)[C@H](CC(=O)O)NC(=O)[C@H](CCCCN)NC(=O)[C@@H]3CCCN3C(=O)[C@H](CCCNC(=N)N)NC2=O)cc1 ({CH2CO}-YLR[Phe(4-Me)]RPKDRGGC-NH2; thioether N-12)

Further lines, the molecule ahead of its results:

Structure (SMILES)	IC50 [nM]
CC(C)C[C@@H]1NC(=O)[C@H](C(C)C)NC(=O)CSC[C@@H](C(N)=O)NC(=O)CNC(=O)CNC(=O)[C@H](CCCNC(=N)N)NC(=O)[C@H](CC(=O)O)NC(=O)[C@H](CCCCN)NC(=O)[C@@H]2CCCN2C(=O)[C@H](CCCNC(=N)N)NC(=O)[C@H](Cc2ccccc2)NC(=O)[C@H](CCCNC(=N)N)NC1=O ({CH2CO}-VLRFRPKDRGGC-NH2; thioether N-12)	210000
CC(C)C[C@@H]1NC(=O)[C@H](Cc2ccncc2)NC(=O)CSC[C@@H](C(N)=O)NC(=O)CNC(=O)CNC(=O)[C@H](CCCNC(=N)N)NC(=O)[C@H](CC(=O)O)NC(=O)[C@H](CCCCN)NC(=O)[C@@H]2CCCN2C(=O)[C@H](CCCNC(=N)N)NC(=O)[C@H](Cc2ccccc2)NC(=O)[C@H](CCCNC(=N)N)NC1=O ({CH2CO}-[4Pal]LRFRPKDRGGC-NH2; thioether N-12)	12000
CC(C)C[C@@H]1NC(=O)[C@H](Cc2ccc(O)cc2)NC(=O)CSC[C@@H](C(N)=O)NC(=O)CNC(=O)CNC(=O)[C@H](CCCNC(=N)N)NC(=O)[C@H](CC(=O)O)NC(=O)[C@H](CCCCN)NC(=O)[C@@H]2CCCN2C(=O)[C@H](CCCNC(=N)N)NC(=O)[C@H](C)NC(=O)[C@H](CCCNC(=N)N)NC1=O ({CH2CO}-YLRARPKDRGGC-NH2; thioether N-12)	5100
CC(C)C[C@@H]1NC(=O)[C@H](CCCNC(=N)N)NC(=O)[C@H](C)NC(=O)[C@H](Cc2ccc(O)cc2)NC(=O)CSC[C@@H](C(N)=O)NC(=O)CNC(=O)CNC(=O)[C@H](CCC(N)=O)NC(=O)[C@H](CC(N)=O)NC(=O)[C@H]([C@@H](C)O)NC(=O)[C@@H]2CCCN2C(=O)[C@H](CCCCN)NC1=O ({CH2CO}-YARLKPTNQGGC-NH2; thioether N-12)	410000
CC(C)C[C@@H]1NC(=O)[C@H](Cc2ccc(O)cc2)NC(=O)CSC[C@@H](C(N)=O)NC(=O)CNC(=O)CNC(=O)[C@H](CCC(N)=O)NC(=O)[C@H](CC(N)=O)NC(=O)[C@H]([C@@H](C)O)NC(=O)[C@@H]2CCCN2C(=O)[C@H](CCCCN)NC(=O)[C@H](C)NC(=O)[C@H](CCCNC(=N)N)NC1=O ({CH2CO}-YLRAKPTNQGGC-NH2; thioether N-12)	13000
CC(C)C[C@@H]1NC(=O)[C@H](C)NC(=O)[C@H](CC(C)C)NC(=O)[C@H](Cc2ccc(O)cc2)NC(=O)CSC[C@@H](C(N)=O)NC(=O)CNC(=O)CNC(=O)[C@H](CCC(N)=O)NC(=O)[C@H](CC(N)=O)NC(=O)[C@H]([C@@H](C)O)NC(=O)[C@@H]2CCCN2C(=O)[C@H](CCCCN)NC1=O ({CH2CO}-YLALKPTNQGGC-NH2; thioether N-12)	850000
CC(C)C[C@@H]1NC(=O)[C@H](Cc2ccc(O)cc2)NC(=O)CSC[C@@H](C(N)=O)NC(=O)CNC(=O)CNC(=O)[C@H](CCCNC(=N)N)NC(=O)[C@H](CC(=O)O)NC(=O)[C@H](CCCCN)NC(=O)[C@@H]2CCCN2C(=O)[C@H](CCCNC(=N)N)NC(=O)[C@H](Cc2ccccc2)NC(=O)[C@H](CCCCN)NC1=O ({CH2CO}-YLKFRPKDRGGC-NH2; thioether N-12)	300
COc1cccc(C[C@@H]2NC(=O)CSC[C@@H](C(N)=O)NC(=O)CNC(=O)CNC(=O)[C@H](CCCNC(=N)N)NC(=O)[C@H](CC(=O)O)NC(=O)[C@H](CCCCN)NC(=O)[C@@H]3CCCN3C(=O)[C@H](CCCNC(=N)N)NC(=O)[C@H](Cc3ccccc3)NC(=O)[C@H](CCCNC(=N)N)NC(=O)[C@H](CC(C)C)NC2=O)c1 ({CH2CO}-[Phe(3-OMe)]LRFRPKDRGGC-NH2; thioether N-12)	640
CC(C)C[C@@H]1NC(=O)[C@H](Cc2ccc(O)cc2)NC(=O)CSC[C@@H](C(N)=O)NC(=O)CNC(=O)CNC(=O)[C@H](CCCNC(=N)N)NC(=O)[C@H](CC(=O)O)NC(=O)[C@H](CCCCN)NC(=O)[C@@H]2CCCN2C(=O)[C@H](CCCNC(=N)N)NC(=O)[C@H](Cc2cccc(C(F)(F)F)c2)NC(=O)[C@H](CCCNC(=N)N)NC1=O ({CH2CO}-YLR[Phe(3-CF3)]RPKDRGGC-NH2; thioether N-12)	93
